Data: patent US20230382911A1 (Hoffmann-La Roche Inc., priority 2021, published 2023)

Biological target: Recombinant human Mat2a (Homo sapiens (Human), UniProt P31153)
Assay: Determination of Mat2A activity: 384 well format absorbance-based Mat2A inhibition assay
Assay type: biochemical
Settings: 12.5 nM Mat2A, 100 μM ATP and Methionine, 2% DMSO, 120 minutes at RT, Biomol Green, absorbance at 635 nm
Method: Determination of Mat2A Activity
Measurement of Mat2A inhibition is performed in 384 well format absorbance-based assay.
Recombinant human Mat2a (12.5 nM) and serial diluted compounds in DMSO (range of concentrations from 10 μM to […]) or controls (DMSO) are incubated for 15 minutes at room temperature (RT) in assay buffer containing 50 mM HEPES pH 7.5, 50 mM KCl, 50 mM MgCl2, 0.01% Tween 20 and 10 mM DTT. The reaction is initiated by the addition of the combined substrates ATP and Methionine, each at a final concentration of 100 μM. Final assay condition are 12.5 nM Mat2A, 100 μM ATP and Methionine Substrates and 2% DMSO. After 120 minutes of incubation at RT, the reaction is stopped by the addition of Biomol Green. The absorbance signal is measured at λ=635 nm with a multiplate reader (BMG Pherastar reader or equivalent) after 30 min of equilibration at RT.

Chain of Recombinant human Mat2a (P31153 whole entry): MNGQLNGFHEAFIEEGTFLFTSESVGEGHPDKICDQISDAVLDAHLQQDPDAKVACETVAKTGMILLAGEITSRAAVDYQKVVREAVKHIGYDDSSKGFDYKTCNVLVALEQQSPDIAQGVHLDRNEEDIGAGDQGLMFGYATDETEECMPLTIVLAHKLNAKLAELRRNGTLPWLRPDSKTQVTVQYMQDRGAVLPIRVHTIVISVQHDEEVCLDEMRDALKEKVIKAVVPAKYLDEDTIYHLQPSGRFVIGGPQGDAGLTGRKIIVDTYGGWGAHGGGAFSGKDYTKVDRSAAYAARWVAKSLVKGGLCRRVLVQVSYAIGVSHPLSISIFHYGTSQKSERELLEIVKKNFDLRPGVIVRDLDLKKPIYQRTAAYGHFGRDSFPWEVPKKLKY

IC50 [nM]	Compound
28	Cc1ccccc1C(=O)n1nc(N)c2ccc([C@H]3C[C@@H]3C)nc21 (racemic) [Example 33, (3-amino-6-((1RS,2RS)-2-methylcyclopropyl)-1H-pyrazolo[3,4-b]pyridin-1-yl)(o-tolyl)methanone]
29	COc1ccccc1C(=O)n1nc(N)c2ccc([C@H]3C[C@@H]3C)nc21 (racemic) [Example 34, (3-amino-6-((1RS,2RS)-2-methylcyclopropyl)-1H-pyridin-3-pyrazolo[3,4-b]pyridin-1-yl)(2-methoxyphenyl)methanone]
64	COc1ccccc1C(=O)n1nc(N)c2ccc([C@H]3C[C@@H]3F)nc21 (racemic) [Example 39, (3-amino-6-((1RS,2SR)-2-fluorocyclopropyl)-1H-pyrazolo[3,4-b]pyridin-1-yl)(2-methoxyphenyl)methanone]
170	COc1ccccc1C(=O)n1nc(N)c2ccc(N3C[C@@H]4CC[C@H]3C4)nc21 (racemic) [Example 51, [3-amino-6-[(1RS,4SR)-3-azabicyclo[2.2.1]heptan-3-yl]pyrazolo[3,4-b]pyridin-1-yl]-(2-methoxyphenyl)methanone]
33	C[C@H]1C(=O)NCC[C@H]1C(=O)n1nc(N)c2ccc(C3CC3)nc21 (racemic) [Example 59, (3RS,4RS)-4-(3-amino-6-cyclopropylpyrazolo[3,4-b]pyridine-1-carbonyl)-3-methylpiperidin-2-one]
36	C[C@H]1OCC[C@H]1C(=O)n1nc(N)c2ccc(C3CC3)nc21 (racemic) [Example 65, (3-amino-6-cyclopropyl-1H-pyrazolo[3,4-b]pyridin-1-yl)((2SR,3RS)-2-methyltetrahydrofuran-3-methyloxolane-2-yl)methanone]
110	COc1ccccc1C(=O)n1nc(N)c2ccc(C3=CCCCC3)nc21 [Example 6, [3-amino-6-(cyclohexen-1-yl)pyrazolo[3,4-b]pyridin-1-yl]-(2-methoxyphenyl)methanone]
120	COc1ccccc1C(=O)n1nc(N)c2ccc(C3CC3)nc21 [Example 7, (3-amino-6-cyclopropylpyrazolo[3,4-b]pyridin-1-yl)-(2-methoxyphenyl)methanone]
56	COc1ccccc1C(=O)n1nc(N)c2cc(Cl)c(C3CC3)nc21 [Example 8, (3-amino-5-chloro-6-cyclopropyl-1H-pyrazolo[3,4-b]pyridin-1-yl)(2-methoxyphenyl)methanone]
390	Cc1ccccc1C(=O)n1nc(N)c2cc(Cl)c(C3CC3)nc21 [Example 9]
410	Nc1nn(C(=O)c2cccc3c2OCO3)c2nc(C3CC3)ccc12 [Example 19, (3-amino-6-cyclopropylpyrazolo[3,4-b]pyridin-1-yl)-(1,3-benzodioxol-4-yl)methanone]
160	Cc1ccccc1C(=O)n1nc(N)c2ccc(C3CC3)nc21 [Example 20, (3-amino-6-cyclopropylpyrazolo[3,4-b]pyridin-1-yl)-(2-methylphenyl)methanone]
440	COc1ccccc1C(=O)n1nc(N)c2ccc(C3=CCCCO3)nc21 [Example 22, [3-amino-6-(3,4-dihydro-2H-pyran-6-yl)pyrazolo[3,4-b]pyridin-1-yl]-(2-methoxyphenyl)methanone]

Continued, compound first:

Compound	IC50 [nM]
COc1ccccc1C(=O)n1nc(N)c2ccc([C@@H]3C[C@H]3C(F)(F)F)nc21 (racemic) [Example 42, [3-amino-6-[(1RS,2RS)-2-(trifluoromethyl)cyclopropyl]pyrazolo[3,4-b]pyridin-1-yl]-(2-methoxyphenyl)methanone]	200
COc1ccccc1C(=O)n1nc(N)c2ccc(-c3ccccc3)nc21 [Example 1, (3-amino-6-phenyl-1H-pyrazolo[3,4-b]pyridin-1-yl)(2-methoxyphenyl)methanone]	92
COc1ccccc1C(=O)n1nc(N)c2ccc(CC(C)C)nc21 [Example 2, (3-amino-6-isobutyl-1H-pyrazolo[3,4-b]pyridin-1-yl)(2-methoxyphenyl)methanone]	110
COc1ccccc1C(=O)n1nc(N)c2ccc(N3CCCC3)nc21 [Example 3, (3-amino-6-(pyrrolidin-1-yl)-1H-pyrazolo[3,4-b]pyridin-1-yl)(2-methoxyphenyl)methanone]	53
Nc1nn(C(=O)c2ccccc2Cl)c2nc(N3CCCC3)ccc12 [Example 4, (3-amino-6-(pyrrolidin-1-yl)-1H-pyrazolo[3,4-b]pyridin-1-yl)(2-chlorophenyl)methanone]	140
Cc1ccccc1C(=O)n1nc(N)c2ccc(N3CCCC3)nc21 [Example 5, (3-amino-6-(pyrrolidin-1-yl)-1H-pyrazolo[3,4-b]pyridin-1-yl)(o-tolyl)methanone]	94
COc1ccccc1C(=O)n1nc(N)c2cc(F)c(-c3ccccc3)nc21 [Example 10, (3-amino-5-fluoro-6-phenyl-1H-pyrazolo[3,4-b]pyridin-1-yl)(2-methoxyphenyl)methanone]	280
Nc1nn(C(=O)c2ccccc2Cl)c2nc(N3CCCC3)c(F)cc12 [Example 12, (3-amino-5-fluoro-6-(pyrrolidin-1-yl)-1H-pyrazolo[3,4-b]pyridin-1-yl)(2-chlorophenyl)methanone]	140
Cc1ccccc1C(=O)n1nc(N)c2cc(F)c(N3CCCC3)nc21 [Example 13, (3-amino-5-fluoro-6-(pyrrolidin-1-yl)-1H-pyrazolo[3,4-b]pyridin-1-yl)(o-tolyl)methanone]	110
COc1ccccc1C(=O)n1nc(N)c2cc(F)c(N3CC(F)(F)C3)nc21 [Example 14, (3-amino-6-(3,3-difluoroazetidin-1-yl)-5-fluoro-1H-pyrazolo[3,4-b]pyridin-1-yl)(2-methoxyphenyl)methanone]	95
COc1ccccc1C(=O)n1nc(N)c2ccc(C(C)(C)C)nc21 [Example 15, (3-amino-6-(tert-butyl)-1H-pyrazolo[3,4-b]pyridin-1-yl)(2-methoxyphenyl)methanone]	99
COc1ccccc1C(=O)n1nc(N)c2cnc(N3CCCC3)nc21 [Example 16, (3-amino-6-(pyrrolidin-1-yl)-1H-pyrazolo[3,4-d]pyrimidin-1-yl)(2-methoxyphenyl)methanone]	65
Cc1ccccc1C(=O)n1nc(N)c2cnc(N3CCCC3)nc21 [Example 17, (3-amino-6-(pyrrolidin-1-yl)-1H-pyrazolo[3,4-d]pyrimidin-1-yl)(o-tolyl)methanone]	280
Nc1nn(C(=O)c2ccccc2Cl)c2nc(N3CCCC3)ncc12 [Example 18, (3-amino-6-(pyrrolidin-1-yl)-1H-pyrazolo[3,4-d]pyrimidin-1-yl)(2-chlorophenyl)methanone]	350
COc1ccccc1C(=O)n1nc(N)c2cc3c(nc21)CC(C)(C)CC3 [Example 21, (3-amino-7,7-dimethyl-5,6,7,8-tetrahydro-1H-pyrazolo[3,4-b]quinolin-1-yl)(2-methoxyphenyl)methanone]	140
COc1ccccc1C(=O)n1nc(N)c2ccc(C3=CCCC3)nc21 [Example 23, [3-amino-6-(cyclopenten-1-yl)pyrazolo[3,4-b]pyridin-1-yl]-(2-methoxyphenyl)methanone]	20
COc1ccccc1C(=O)n1nc(N)c2ccc(N3CCC3)nc21 [Example 24, (3-amino-6-(azetidin-1-yl)-1H-pyrazolo[3,4-b]pyridin-1-yl)(2-methoxyphenyl)methanone]	300
